Experimental data from patent publication US4965365A, “Imidazole derivatives and a process for the preparation thereof” (Laboratorios Vinas, S.A., priority 1988, dated 1990).

Experiments:
ethanol induced ulcers = settings: equimolecular doses
Protocol: (B) Necrotic agent model.
The activity of this compound vs cimetidine at equimolecular doses and a control group administered a vehicle was tested using the necrotic agent model, in this case ethanol, described by A. Robert et al. (Gastroenterology, 77: 433, 1979).

[1] = test system: histamine induced gastric acid secretion; settings: 15 mg/kg, i.p., rat, intragastric pH
Protocol: (A) histamine induced gastric acid secretion model "in vivo" in the rat.
This activity was measured in Wistar rats of 240±20 g body weight. An endovenous perfusion of a histamine solution stimulated the gastric acid secretion, causing a drop in the intragastric pH. Thereafter, this compound was administered i.p. and the increase in gastric pH caused was evaluated.

| Compound | % inhibition of ulcers vs the control (ethanol induced ulcers; ethanol model) | mm damaged (lesion index, mm of ulcer) (ethanol induced ulcers; mean ± standard error of the mean, control 91.4 ± 8.1, a: t test p< 0.05 vs control) | pH Recovery [1] |
| --- | --- | --- | --- |
| CNC(=NC#N)NCCSCc1nc[nH]c1C [Cimetidine, cimetidine] | 30.3% | 63.7 ± 7.7 mm | – |
| CN=C(NC#N)NCCSCc1nc[nH]c1C.[Cl][Zn][Cl] [Zn(cimetidine)Cl2] | – | – | 65.5% |
